# Results: patent US10206904B2, “Licofelone derivatives and methods of use” (The Board of Regents of the University of Oklahoma, priority 2015, dated 2019)
# Several values for one entry are separate records, joined by “and”; a condition that tells them apart may be missing. Identical values can stand only once. Like-named read-outs stand apart in the source and are kept apart here.
# What was measured:
# [1] = target: 5-LOX (Rattus norvegicus, UniProt P12527); details: ex vivo colon tumor homogenate
# Chain of 5-LOX (P12527 whole entry): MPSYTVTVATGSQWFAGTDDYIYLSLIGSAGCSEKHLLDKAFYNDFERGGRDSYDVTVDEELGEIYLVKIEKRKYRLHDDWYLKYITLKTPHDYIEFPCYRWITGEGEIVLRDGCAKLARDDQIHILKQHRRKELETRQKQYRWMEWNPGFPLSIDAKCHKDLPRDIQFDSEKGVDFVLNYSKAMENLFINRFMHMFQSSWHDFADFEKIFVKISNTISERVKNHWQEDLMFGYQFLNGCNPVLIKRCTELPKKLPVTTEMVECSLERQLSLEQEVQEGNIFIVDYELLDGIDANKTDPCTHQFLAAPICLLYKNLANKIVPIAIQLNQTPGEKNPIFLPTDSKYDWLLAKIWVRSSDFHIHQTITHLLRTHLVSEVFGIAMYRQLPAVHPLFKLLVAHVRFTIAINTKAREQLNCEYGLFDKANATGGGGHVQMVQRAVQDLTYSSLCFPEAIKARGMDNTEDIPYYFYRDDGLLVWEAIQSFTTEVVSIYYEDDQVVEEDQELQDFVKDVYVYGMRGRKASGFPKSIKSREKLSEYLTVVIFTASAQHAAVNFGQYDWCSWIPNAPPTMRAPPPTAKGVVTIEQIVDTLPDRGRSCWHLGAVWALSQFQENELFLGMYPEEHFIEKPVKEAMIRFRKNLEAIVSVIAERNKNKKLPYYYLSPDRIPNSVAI
# Method: (§1) Briefly, colonic tubular adenocarcinomas (ACs) were homogenized in 100 mM Tris-HCl buffer. […] Reaction mixture incubated for 20 min and ^14C-PGE2, 5-^14C-HETE and other 14-C metabolites were extracted and analyzed by Radio-HPLC according to the previously published work.
# [2] = test system: COX-1/2; details: ex vivo colon tumor homogenate
# Method: as §1
# [3] = target: mPGES-1 (Rattus norvegicus, UniProt Q9JHF3); details: ex vivo colon tumor homogenate
# Chain of mPGES-1 (Q9JHF3 whole entry): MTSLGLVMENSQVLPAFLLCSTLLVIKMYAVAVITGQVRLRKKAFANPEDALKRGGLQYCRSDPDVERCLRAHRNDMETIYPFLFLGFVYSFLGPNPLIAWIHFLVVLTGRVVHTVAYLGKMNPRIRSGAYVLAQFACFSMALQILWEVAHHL
# Method: as §1
# [4] = test system: AOM-induced colon tumors; details: AOM-treated male F344 rats
# Method: After 42 weeks of experimental diet feeding and total 52 weeks of experimental duration, the rats were necropsied. After necropsy of the rats, the colonic tumors were analyzed histologically. Histopathological evaluation colonic tumor has been completed by two pathologists independently. Colonic tumors were histopathologically classified to adenomas or adenocarcinomas either exophytic (non-invasive) or endophytic (invasive).
# Colonic tumors (CTs) were induced by colon specific carcinogen, azoxymethane (AOM) (15 mg/kg by wt, once weekly for 2 weeks) in F344 rats at 8 weeks' age. […] Rats were killed by CO2 asphyxiation 36 weeks after second AOM and the colons were removed, rinsed in PBS, opened longitudinally, and flattened on a filter paper. The location and size of each tumor were noted. Tumors were removed, snap frozen, or fixed in 10% buffered formalin for 24 hours and transferred to 80% ethanol for histopathological analysis. The number and type of colon tumors (adenoma and adenocarcinoma) were analyzed histologically blinded to treatment groups and compared with control diet fed rat colonic tumors.
smiles,measurement,setting,value
"CC1(C)Cc2c(-c3ccccc3)c(-c3ccc(Cl)cc3)c(CC(=O)NCC(=O)O)n2C1 [LFA-9, licofelone-glycine]","% of Inhibition from control, 5LOX (5-14C-HETE from 14C-AA)",[1]; 2.5 μM,27%
same,"% of Inhibition from control, 5LOX (5-14C-HETE from 14C-AA)",[1]; 5.0 μM,49%
same,"% of Inhibition from control, 5LOX (5-14C-HETE from 14C-AA)",[1]; 7.5 μM,68%
same,"% of Inhibition from control, 5LOX (5-14C-HETE from 14C-AA)",[1]; 10 μM,89%
same,"% of Inhibition from control, 5LOX (5-14C-HETE from 14C-AA)",[1]; 20 μM,97%
same,"% of Inhibition from control, COX-1/2 (14C-PGs and TXs from 14C-AA)",[2]; 2.5 μM,4%
same,"% of Inhibition from control, COX-1/2 (14C-PGs and TXs from 14C-AA)",[2]; 5.0 μM,9%
same,"% of Inhibition from control, COX-1/2 (14C-PGs and TXs from 14C-AA)",[2]; 10 μM,31%
same,"% of Inhibition from control, COX-1/2 (14C-PGs and TXs from 14C-AA)",[2]; 20 μM,58%
same,"% of Inhibition from control, mPGES-1 (14C-PGE2 from 14C-PGH2)",[3]; 2.5 μM,18%
same,"% of Inhibition from control, mPGES-1 (14C-PGE2 from 14C-PGH2)",[3]; 5.0 μM,32%
same,"% of Inhibition from control, mPGES-1 (14C-PGE2 from 14C-PGH2)",[3]; 7.5 μM,57%
same,"% of Inhibition from control, mPGES-1 (14C-PGE2 from 14C-PGH2)",[3]; 10 μM,78%
same,"% of Inhibition from control, mPGES-1 (14C-PGE2 from 14C-PGH2)",[3]; 20 μM,83%
same,% AdCA Inhibition (incidence),[4]; 200 ppm in diet,60%
same,% AdCA Inhibition (multiplicity),[4]; 200 ppm in diet,77%
same,% Inv AdCA Inhibition (incidence),[4]; 200 ppm in diet,85.1%
same,% Inv AdCA Inhibition (multiplicity),[4]; 200 ppm in diet,86.0%
same,% Non-Inv AdCA Inhibition (incidence),[4]; 200 ppm in diet,63.0%
same,% Non-Inv AdCA Inhibition (multiplicity),[4]; 200 ppm in diet,72.9%
same,% adenoma Inhibition (incidence),[4]; 200 ppm in diet,53%
same,% adenoma Inhibition (multiplicity),[4]; 200 ppm in diet,38.3% and 38.27%
same,% of CRC Tumor Inhibition (incidence),[4]; 200 ppm in diet,47.5%
same,% of CRC Tumor Inhibition (multiplicity),[4]; 200 ppm in diet,64% and 64.05%
same,AdCA Incidence (% Rats with AdCa),[4]; 200 ppm in diet,(33.3%)
same,AdCA Incidence (rats with AdCa/rats),[4]; 200 ppm in diet,10/30
same,AdCA Multiplicity (Mean ± SEM),[4]; 200 ppm in diet,0.37±0.07 Tumors/Rat
same,Adenoma Incidence (% Rats with Adenomas),[4]; 200 ppm in diet,(30.0%)
same,Adenoma Incidence (rats with adenomas/rats),[4]; 200 ppm in diet,9/30
same,Adenoma Multiplicity (Mean ± SEM),[4]; 200 ppm in diet,0.50±0.07 Tumors/Rat
same,Invasive AdCA Incidence (% Rats with Invasive AdCa),[4]; 200 ppm in diet,(6.66%)
same,Invasive AdCA Incidence (rats with Invasive AdCa/rats),[4]; 200 ppm in diet,2/30
same,Invasive AdCA Multiplicity (Mean ± SEM),[4]; 200 ppm in diet,0.07 ± 0.02 Tumors/Rat
same,Multiplicity Total CRC Tumors (Adenoma + AdCa) (Mean ± SEM),[4]; 200 ppm in diet,0.87 ± 0.12 Tumors/Rat
same,Non-Inv AdCa Incidence (% Rats with Non-Inv AdCa),[4]; 200 ppm in diet,(26.7%)
same,Non-Inv AdCa Incidence (rats with Non-Inv AdCa/rats),[4]; 200 ppm in diet,8/30
same,Non-Inv AdCa Multiplicity (Mean ± SEM),[4]; 200 ppm in diet,0.30 ± 0.05 Tumors/Rat
same,Total CRC Tumors (Adenoma + AdCa) incidence (% rats),[4]; 200 ppm in diet,(46.6%)
same,Total CRC Tumors (Adenoma + AdCa) incidence (rats with tumors/rats),[4]; 200 ppm in diet,14/30
same,% AdCA Inhibition (incidence),[4]; 400 ppm in diet,67.9%
same,% AdCA Inhibition (multiplicity),[4]; 400 ppm in diet,81.3%
same,% Inv AdCA Inhibition (incidence),[4]; 400 ppm in diet,77.4%%
same,% Inv AdCA Inhibition (multiplicity),[4]; 400 ppm in diet,80.0%
same,% Non-Inv AdCA Inhibition (incidence),[4]; 400 ppm in diet,72.3%
same,% Non-Inv AdCA Inhibition (multiplicity),[4]; 400 ppm in diet,82.0%
same,% adenoma Inhibition (incidence),[4]; 400 ppm in diet,53%
same,% adenoma Inhibition (multiplicity),[4]; 400 ppm in diet,46.9%
same,% of CRC Tumor Inhibition (incidence),[4]; 400 ppm in diet,55.5% and 55.0%
same,% of CRC Tumor Inhibition (multiplicity),[4]; 400 ppm in diet,69.1% and 69.08%
same,AdCA Incidence (% Rats with AdCa),[4]; 400 ppm in diet,(26.7%)
same,AdCA Incidence (rats with AdCa/rats),[4]; 400 ppm in diet,8/30
same,AdCA Multiplicity (Mean ± SEM),[4]; 400 ppm in diet,0.30±0.07 Tumors/Rat
same,Adenoma Incidence (% Rats with Adenomas),[4]; 400 ppm in diet,(30.0%)
same,Adenoma Incidence (rats with adenomas/rats),[4]; 400 ppm in diet,9/30
same,Adenoma Multiplicity (Mean ± SEM),[4]; 400 ppm in diet,0.43±0.06 Tumors/Rat
same,Invasive AdCA Incidence (% Rats with Invasive AdCa),[4]; 400 ppm in diet,(10.0%)
same,Invasive AdCA Incidence (rats with Invasive AdCa/rats),[4]; 400 ppm in diet,3/30
same,Invasive AdCA Multiplicity (Mean ± SEM),[4]; 400 ppm in diet,0.10 ± 0.02 Tumors/Rat
same,Multiplicity Total CRC Tumors (Adenoma + AdCa) (Mean ± SEM),[4]; 400 ppm in diet,0.73 ± 0.10 Tumors/Rat
same,Non-Inv AdCa Incidence (% Rats with Non-Inv AdCa),[4]; 400 ppm in diet,(20.0%)
same,Non-Inv AdCa Incidence (rats with Non-Inv AdCa/rats),[4]; 400 ppm in diet,6/30
same,Non-Inv AdCa Multiplicity (Mean ± SEM),[4]; 400 ppm in diet,0.20 ± 0.04 Tumors/Rat
